A word on the Km: it is the concentration of substrate that gives half-maximal velocity.

This is an account of results in article PMC5901744 (Science (New York, N.Y.), 2017).

The test system of test [1] is SaHEPD (hydroxyethylphosphonate dioxygenase from Streptomyces albus; class II HEPD). As to the kind of experiment: steady-state kinetics. Format: biochemical. Conditions: Fe(II), O2.
The test system is the same in test [2]. The settings on record: read-out: Km,HEP; Fe(II), O2; product MPn instead of HMP.

For the molecule `O=P(O)(O)CCO` [2-HEP, 2-hydroxyethylphosphonate], the “Km,HEP” value in test [1] was “very similar to those of purified wild-type SaHEPD (Fig. S6 and S7, Table S2)”. The Km in test [2] worked out at 15 ± 2 µM.
